Data published in US4338330A, “Benzimidazole derivatives, their use, and compositions containing these derivatives” (Continental Pharma, priority 1979, dated 1982).
Structures can show the parent of a compound that is named as a salt. Where two headings read alike, the source gives them in different places.

Assays:
[1] = Antihypertensive activity, oral, unanesthetized spontaneously hypertensive rats; format: in vivo
Method: […] Only rats having a systolic pressure of 180 to 220 mm Hg are used. Two rats are used by product. The treatments are administered without the knowledge of the person making the measure.
The antihypertensive effects were recorded according to a score followed by an index. The scoring system is as follows.
The index is calculated by multiplying the systolic pressure difference (cmHg) measured every 30 minutes after the treatment, by a coefficient of 1 to 6 corresponding to times of 30 to 180 minutes.

[2] = system: guinea pig ileum contractions induced by histamine; test: Antispasmodic activity against ileum contractions induced by histamine
Method: (§1) The antispasmodic activity of the studied substances was examined against guinea pig ileum contractions induced by histamine and acetylcholine.
(§2) These experiences allow to make it obvious an antihistaminic, anticholinergic or musculotrope activity. The response to the contracting agent (sub-maximum concentration) is obtained every 5 minutes before and after injection of increasing concentrations of tested products (10^-7 M to 10^-4 M). The inhibition percentage under the influence of tested products is calculated and the theoretical concentration giving 50% of inhibition is graphically determined for each experience. These values are expressed in -log CI50 (M).

[3] = system: chronotropic response to noradrenaline of isolated guinea pig auricles; test: β-lytic effect on the chronotropic response to noradrenaline of isolated auricles
Method: (§3) The β-lytic effect was searched on the chronotropic response to noradrenaline of isolated guinea pig auricles. Auricles were incubated for 20 minutes in a Tyrode solution at 29° C. in the presence of the substance to be tested at the concentration of 10^-6 M. A positive (+) or negative (-) chronotrope effect of the substance was noted using the following scores:
Then, the chronotrope effect of cumulative increasing concentrations of noradrenaline was recorded. The pD2 (-log CE50) value was calculated. A score of β-lytic activity of the substance was given as follows:
If the score at concentration of 10^-6 M was 3 or 4, the effect of the substance was examined at concentration of 10^-7 M and a score was recorded according to the same procedure.

[4] = system: isolated guinea pig auricles; test: Chronotrope effect of the substance on isolated auricles; settings: 10^-6 M, 20 minutes, Tyrode, 29° C.
Method: as §3, with “scores: […]” for “scores:”

[5] = system: guinea pig ileum contractions induced by acetylcholine; test: Antispasmodic activity against ileum contractions induced by acetylcholine
Method: as §1, §2

[6] = LD50 in mice, oral (Lichtfield and Wilcoxon method); format: in vivo
Method: LD50 were determined according to the Lichtfield and Wilcoxon method (J. Pharmacol. Exp. Ther. 96, 99, 1949) and expressed in mg/kg. The products were administered to mice orally.

[7] = 60 mg/kg oral, spontaneously hypertensive rats
[8] = 60 mg/kg oral, systolic pressure difference (cmHg) every 30 min multiplied by time coefficient 1 to 6
[9] = mouse, in vivo, po, read-out: LD50

| Structure (SMILES) | Antispasmodic activity, Hist. (-log CI50 (M)) [2] | β-lytic effect (score) ([3]; 10^-6 M) | Antihypertensive activity (score) [1, 7] | Antihypertensive activity (index) [1, 8] | Chronotrope effect (score) [4] | Antispasmodic activity, Ac. Chol. (-log CI50 (M)) [5] | β-lytic effect (score) ([3]; 10^-7 M) | other results |
| --- | --- | --- | --- | --- | --- | --- | --- | --- |
| C[C@](N)(Cc1ccc(O)c(O)c1)C(=O)O [alpha-methyldopa, reference compound] |  |  |  |  |  |  |  | Antihypertensive activity (index) ([1]; 100 mg/kg oral): 47; Antihypertensive activity (score) ([1]; 100 mg/kg oral): +++ (reduction of 30 to 50 mm Hg) |
| OC(CNC1CCCCC1)COc1ccc(-c2nc3ccccc3[nH]2)cc1 (centres unmarked) [Compound 18] | 5.45 -log CI50 (M) | 1 (if 6.80≥pD2 ≥6.41) | +++ (reduction of 30 to 50 mm Hg) | 83 | 0 (if the frequency modification was comprised between +6 and -6) | 5.21 -log CI50 (M) |  |  |
| Cc1ccc(OCCNCC(O)COc2ccc(-c3nc4ccccc4[nH]3)cc2)cc1 (centres unmarked) [Compound 22] | 5,65 -log CI50 (M) | 2 (if 6.40≥pD2 ≥6.01) | 0 (reduction <10 mm Hg) |  | 0 (if the frequency modification was comprised between +6 and -6) | 5,35 -log CI50 (M) |  |  |
| CC(C)C(=O)NCCNCC(O)COc1ccc(-c2nc3ccccc3[nH]2)cc1 (centres unmarked) [Compound 26, 2-{4-[3-(2-isobutyramidoethyl)amino-2-hydroxypropoxy]phenyl}benzimidazole] |  | 4 (if pD2 ≤5.50) |  |  | 0 (if the frequency modification was comprised between +6 and -6) |  | 3 (if 6.00≥pD2 ≥5.51) |  |
| CC(C)NCC(O)COc1ccc(-c2nc3ccccc3[nH]2)cc1 (centres unmarked) [Compound 10, 2-[4-(3-isopropylamino-2-hydroxypropoxy)phenyl]benzimidazole] | 4.31 -log CI50 (M) | 4 (if pD2 ≤5.50) |  |  | 0 (if the frequency modification was comprised between +6 and -6) | 4.95 -log CI50 (M) |  | Antihypertensive activity (index) ([1]; at 10 mg, oral): 61; Antihypertensive activity (score) ([1]; at 10 mg, oral): +++ (reduction of 30 to 50 mm Hg); LD50 [6]: 1960 mg/kg |
| CC(C)NCC(O)COc1ccc(-c2nc3cc([N+](=O)[O-])ccc3[nH]2)cc1 (centres unmarked) [Compound 24, 2-[4-(3-isopropylamino-2-hydroxypropoxy)-phenyl]-5(6)nitrobenzimidazole] | 5,50 -log CI50 (M) | 3 (if 6.00≥pD2 ≥5.51) |  |  | 0 (if the frequency modification was comprised between +6 and -6) | 5,45 -log CI50 (M) | 2 (if 6.40≥pD2 ≥6.01) |  |
| CC(CCc1ccc2c(c1)OCO2)NCC(O)COc1ccc(-c2nc3ccccc3[nH]2)cc1 (centres unmarked) [Compound 13] | 6.46 -log CI50 (M) | 2 (if 6.40≥pD2 ≥6.01) | 0 (reduction <10 mm Hg) |  | 0 (if the frequency modification was comprised between +6 and -6) | 6.15 -log CI50 (M) |  | LD50 [6, 9]: > 1000 mg/kg |
| Cc1cc(-c2nc3ccccc3[nH]2)ccc1OCC(O)CNC(C)C (centres unmarked) [Compound 20] |  | 4 (if pD2 ≤5.50) | 0 (reduction <10 mm Hg) |  | 0 (if the frequency modification was comprised between +6 and -6) |  | 1 (if 6.80≥pD2 ≥6.41) |  |
| COc1ccc2[nH]c(-c3ccc(OCC(O)CNC(C)C)cc3)nc2c1 (centres unmarked) [Compound 19] | 4.99 -log CI50 (M) | 4 (if pD2 ≤5.50) | +++ (reduction of 30 to 50 mm Hg) | 59 | 1 | 4.70 -log CI50 (M) |  |  |
| O=C(Cc1ccccc1)NCCNCC(O)COc1ccc(-c2nc3ccccc3[nH]2)cc1 (centres unmarked) [Compound 27, 2-{4-[3-(2-phenylacetamidoethyl)amino-2-hydroxypropoxy]phenyl}benzimidazole] |  | 4 (if pD2 ≤5.50) |  |  | 0 (if the frequency modification was comprised between +6 and -6) |  | 3 (if 6.00≥pD2 ≥5.51) |  |
| Cc1ccc2[nH]c(-c3ccc(OCC(O)CNC(C)C)cc3)nc2c1 (centres unmarked) [Compound 14, 2-[4-(3-isopropylamino-2-hydroxypropoxy)phenyl]-5(6)-methylbenzimidazole (hydrochloride)] | 4.85 -log CI50 (M) | 4 (if pD2 ≤5.50) | ++++ (reduction>50 mm Hg) | 83 | 1 | 5.10 -log CI50 (M) | 2 (if 6.40≥pD2 ≥6.01) | LD50 [6, 9]: 1450 mg/kg |
| CC(C)NCC(O)COc1ccc(-c2nc3ccccc3[nH]2)cc1 (centres unmarked) [Compound 8, 2-[4-(3-isopropylamino-2-hydroxypropoxy)phenyl]benzimidazole] | 4.65 -log CI50 (M) | 4 (if pD2 ≤5.50) |  |  | 0 (if the frequency modification was comprised between +6 and -6) | 4.95 -log CI50 (M) |  | Antihypertensive activity (index) ([1]; at 10 mg, oral): 66; Antihypertensive activity (score) ([1]; at 10 mg, oral): +++ (reduction of 30 to 50 mm Hg); LD50 [6]: > 2248 mg/kg |
| COc1cc(-c2nc3ccccc3[nH]2)ccc1OCC(O)CNC(C)C (centres unmarked) [Compound 25, 2-[4-(3-isopropylamino-2-hydroxypropoxy)-3-methoxyphenyl]benzimidazole] |  | 3 (if 6.00≥pD2 ≥5.51) |  |  | 0 (if the frequency modification was comprised between +6 and -6) |  | 1 (if 6.80≥pD2 ≥6.41) |  |
| CC(C)NCC(O)COc1ccc(-c2nc3cc(Cl)ccc3[nH]2)cc1 (centres unmarked) [Compound 16] | 5.58 -log CI50 (M) | 3 (if 6.00≥pD2 ≥5.51) | ++++ (reduction>50 mm Hg) | 90 | 0 (if the frequency modification was comprised between +6 and -6) | 5.25 -log CI50 (M) | 1 (if 6.80≥pD2 ≥6.41) | LD50 [6, 9]: 1100 mg/kg |
| CC(C)NCC(O)COc1ccc(-c2nc3c([N+](=O)[O-])cccc3[nH]2)cc1 (centres unmarked) [Compound 17] | 5.15 -log CI50 (M) | 3 (if 6.00≥pD2 ≥5.51) | ++++ (reduction>50 mm Hg) | 89 | 0 (if the frequency modification was comprised between +6 and -6) | 5.60 -log CI50 (M) | 2 (if 6.40≥pD2 ≥6.01) |  |
| Cc1cc2nc(-c3ccc(OCC(O)CNC(C)C)cc3)[nH]c2cc1C (centres unmarked) [Compound 15] | 5.45 -log CI50 (M) | 3 (if 6.00≥pD2 ≥5.51) | ++++ (reduction>50 mm Hg) | 110 | 0 (if the frequency modification was comprised between +6 and -6) | 5.38 -log CI50 (M) | 1 (if 6.80≥pD2 ≥6.41) | LD50 [6, 9]: 1450 mg/kg |
| CC(C)NCC(O)COc1ccc(-c2nc3ccccc3[nH]2)cc1 (centres unmarked) [Compound 9, 2-[4-(3-isopropylamino-2-hydroxypropoxy)phenyl]benzimidazole] | 4.75 -log CI50 (M) | 4 (if pD2 ≤5.50) |  |  | 0 (if the frequency modification was comprised between +6 and -6) | 4.60 -log CI50 (M) |  | Antihypertensive activity (index) ([1]; at 10 mg, oral): 68; Antihypertensive activity (score) ([1]; at 10 mg, oral): +++ (reduction of 30 to 50 mm Hg); LD50 [6]: 2620 mg/kg |
| COC(=O)[C@H]1[C@H]2C[C@@H]3c4[nH]c5cc(OC)ccc5c4CCN3C[C@H]2C[C@@H](OC(=O)c2cc(OC)c(OC)c(OC)c2)[C@@H]1OC [reserpine, reference compound] |  |  |  |  |  |  |  | Antihypertensive activity (index) ([1]; 3 mg/kg oral): 53; Antihypertensive activity (score) ([1]; 3 mg/kg oral): +++ (reduction of 30 to 50 mm Hg) |
| OC(CNCCOc1ccc(Cl)cc1)COc1ccc(-c2nc3ccccc3[nH]2)cc1 (centres unmarked) [Compound 21] |  |  | 0 (reduction <10 mm Hg) |  |  |  |  |  |
